A short description of the data set: RP, Waters ACQUITY UPLC HSS T3, 150 × 2 mm, 1.7 µm, 30 °C, 0.4 mL/min, estimated dead time 0.75 min; A: water + 0.2% formic acid; B: 2% water + 98% acetonitrile + 0.2% formic acid; gradient (min/%B) 0/0 2.5/0 7.5/10 10/100 12/100 18/0 25/0. Conditions: stereoisomer not certain.

With `O=C(O)CC(=O)O` [malonic acid], the LC retention time was 2.64 min. As to `NC(Cc1cnc[nH]1)C(=O)O` (stereo not given) [histidine], the LC retention time is 1.43 min. Take `N[C@@H](CC(=O)O)C(=O)O` [L-aspartic acid]: the LC retention time was 1.53 min. In the case of `O=C(O)CCCCC1CCSS1` [(R)-lipoic acid], the LC retention time was 2.28 min.

On to `O=C(O)/C=C/c1ccc(O[C@@H]2O[C@H](CO)[C@@H](O)[C@H](O)[C@H]2O)cc1` [4-O-beta-D-glucosyl-4-coumaric acid], for which the LC retention time is 9.11 min. The result for `Nc1nc2c(ncn2C2OC(CO)C(O)C2O)c(=O)[nH]1` (stereo not given) [guanosine] reads 6.32 min; that for `OCC1OC(OC2(COC3(CO)OC(CO)C(O)C3O)OC(CO)C(O)C2O)C(O)C(O)C1O` (stereo not given) [1-kestose], 1.88 min. Regarding `COc1c2ccoc2c(OC)c2oc(=O)ccc12` [isopimpinellin], the LC retention time was 1.66 min.

`O=C(O)C(O)CO` (stereo not given) [glyceric acid]: the LC retention time is 1.92 min. For the molecule `O=C(CO)CO` [glycerone], the LC retention time was 3.02 min. Consider `O=C(O)c1ccc(O)cc1` [4-hydroxybenzoic acid], for which the LC retention time was 9.88 min. Regarding `O=C(O)CCC(=O)C(=O)O` [2-oxoglutaric acid], the LC retention time is 3.04 min.

On to `O=C(O)C=Cc1ccc(O)cc1` [4-coumaric acid], for which the LC retention time was 8.99 min.

On to `OCC=Cc1ccc(O)cc1` [4-hydroxycinnamyl alcohol], for which the LC retention time is 1.62 min. The figure for `O=P(O)(O)OC(CO)CO` [glycerol 2-phosphate] is 1.53 min; for `C#CC1(OC(C)=O)CCC2C3CCC4=CC(=O)CCC4C3CCC21C` (stereo not given) [norethindrone acetate] it is 10.5 min; for `O=C(O)CCC(=O)O` [succinic acid] it is 5.35 min. `O=C(O)[C@H](O)[C@@H](O)[C@H](O)[C@H](O)COP(=O)(O)O` [6-phospho-D-gluconic acid]: the LC retention time is 1.55 min. As to `O=C(O)[C@H](O)[C@@H](O)[C@H](O)CO` [D-xylonic acid], the LC retention time is 1.69 min. On to `O=C(O)C1OC(OC2C(C(=O)O)OC(O)C(O)C2O)C(O)C(O)C1O` (stereo not given) [digalacturonic acid], for which the LC retention time is 1.58 min. With `CCCCCCCCCCCCOCCOCCOCCOCCOCCO` [pentaethylene glycol monododecyl ether], the LC retention time was 11.8 min.

`O=C(O)C(=O)[C@H](O)COP(=O)(O)O` [(R)-3-hydroxy-2-oxo-4-phosphonooxybutanoic acid]: the LC retention time was 9.3 min. Regarding `O=C1CC[C@@H](C(=O)O)N1` [5-oxo-L-proline], the LC retention time was 4.72 min.

In the case of `O=C(O)c1ccco1` [2-furoic acid], the LC retention time is 4.46 min. Regarding `C=CC=C(O)C(=O)O` [cis-2-hydroxypenta-2,4-dienoic acid], the LC retention time was 1.68 min. As to `CC1=CC2=CC(C)CC23OC(=C(C)C3=O)CC(C)(C)C=CC1=O` (stereo not given) [jatrophone], the LC retention time was 10.2 min.

With `O=C(CO)COP(=O)(O)O` [glycerone phosphate], the LC retention time is 9.3 min. Turning to `C=CC#CC#CC1=CC=C(C#CC)SS1` [thiarubrine A], the LC retention time is 1.97 min.

Consider `O=C(COP(=O)(O)O)Cc1cnc[nH]1` [3-(imidazol-4-yl)-2-oxopropyl dihydrogen phosphate], for which the LC retention time was 2.09 min. `C[C@](O)(CO)[C@H](O)COP(=O)(O)O` [2-C-methyl-D-erythritol 4-(dihydrogen phosphate)]: the LC retention time is 1.64 min.

As for `C[C@H]([NH3+])C(=O)[O-]` [L-alanine], the LC retention time is 1.44 min. As to `O=C1O[C@H](CO)[C@@H](O)[C@H](O)[C@H]1O` [D-glucono-1,5-lactone], the LC retention time was 2.02 min.

In the case of `O=C(O)C=C(CC(=O)O)C(=O)O` [cis-aconitic acid], the LC retention time was 4.46 min.

For the molecule `CC(=O)NC=CSC1=C(C(=O)O)N2C(=O)C(C(C)OS(=O)(=O)O)C2C1` (stereo not given) [epithienamycin E], the LC retention time was 4.43 min. Turning to `CC(C)CC(=O)C(=O)O` [4-methyl-2-oxopentanoic acid], the LC retention time was 9.46 min.

Turning to `O=P(O)(O)OCC1OC(CO)(OC2OC(CO)C(O)C(O)C2O)C(O)C1O` (stereo not given) [sucrose 6(F)-phosphate], the LC retention time was 1.81 min. The figure for `O=C(O)[C@H](O)[C@@H](O)[C@H](O)[C@H](O)CO` [D-gluconic acid] is 1.61 min. Take `CC(=O)C(=O)O` [pyruvic acid]: the LC retention time is 4.6 min.

Take `O=C(O)c1nc2[nH]c(=O)[nH]c(=O)c2[nH]1` [xanthine-8-carboxylic acid]: the LC retention time is 4.71 min. The result for `O=C[C@H](O)[C@H](O)CO` [D-erythrose] reads 1.67 min; that for `O[C@@H]1c2c(sc3ccccc23)C=C[C@@H]1O` (relative stereo) [cis-1,2-dihydroxy-1,2-dihydrodibenzothiophene], 1.64 min.

Regarding `O=P([O-])([O-])OP(=O)([O-])[O-]` [diphosphate(4-)], the LC retention time is 1.47 min.

`O=C(O)CC(O)C(=O)O` (stereo not given) [malic acid]: the LC retention time was 2.44 min. `NC(CCC(=O)O)C(=O)O` (stereo not given) [glutamic acid]: the LC retention time was 1.62 min. For `OCC1OC(OC2OC(CO)C(O)C(O)C2O)C(O)C(O)C1O` (stereo not drawn) [alpha,alpha-trehalose], the LC retention time is 1.58 min.

Consider `N#CCC(N)C(=O)O` (stereo not given) [3-cyanoalanine], for which the LC retention time was 1.51 min. In the case of `CC(=O)OC1CC(C)C(C=O)C2(O)C1C(C)(C)CC2(C)C=O` (stereo not given) [botrydial], the LC retention time is 13.5 min. The result for `Nc1ncnc2c1ncn2C1OC(CO)C(O)C1O` (stereo not given) [adenosine] reads 6.01 min; that for `CC1(C)SC2C(NC(=O)C(C(=O)O)c3ccccc3)C(=O)N2C1C(=O)O` (stereo not given) [carbenicillin], 1.73 min.

On to `O=C(O)C=CC(=O)O` [fumaric acid], for which the LC retention time was 2.46 min. `NC(Cc1c[nH]c2ccccc12)C(=O)O` (stereo not given) [tryptophan]: the LC retention time was 8.87 min. Consider `O=C(O)C1CCCCN1` (stereo not given) [pipecolic acid], for which the LC retention time was 2.79 min. On to `CC(C(=O)[O-])=C(C)C(=O)[O-]` [dimethylmaleate(2-)], for which the LC retention time was 1.67 min.

Consider `COC(=O)[C@@H](N)Cc1ccc(O)cc1` [methyl L-tyrosinate], for which the LC retention time is 10.7 min. With `NC(=O)C[C@H](N)C(=O)O` [L-asparagine], the LC retention time is 1.48 min.

`O=C([O-])C(O)C(O)C(O)C(O)C(=O)[O-]` (stereo not given) [glucarate(1-)]: the LC retention time was 1.57 min. On to `C[N+](C)(C)CC(=O)[O-]` [glycine betaine], for which the LC retention time was 1.57 min. In the case of `O=C(O)CCCCCCC(=O)O` [suberic acid], the LC retention time was 9.43 min. Take `NC(=O)NC1NC(=O)NC1=O` (stereo not given) [allantoin]: the LC retention time was 1.76 min. Regarding `O=c1ccn(C2OC(CO)C(O)C2O)c(=O)[nH]1` (stereo not given) [uridine], the LC retention time is 5.79 min. Regarding `O=C(O)C=Cc1ccc(O)c(OC2OC(CO)C(O)C(O)C2O)c1` (stereo not given) [Caffeic acid 3-glucoside], the LC retention time is 8.96 min.

Regarding `O=c1[nH]cnc2nc[nH]c12` [hypoxanthine], the LC retention time is 1.75 min. Consider `O=C(O)C1OC(O)C(O)C(O)C1O` (stereo not given) [Glucuronic Acid], for which the LC retention time was 1.61 min. As to `CC[C@H](C)[C@H](N)C(=O)O` [L-isoleucine], the LC retention time was 5.34 min. Turning to `O=C(O)CCCCCCCC(=O)O` [azelaic acid], the LC retention time is 9.61 min. The figure for `CS(=O)(=O)CCC(N)C(=O)O` (stereo not given) [methionine sulfone] is 1.9 min. As to `O=C(C=Cc1ccc(O)c(O)c1)OC1CC(O)(C(=O)O)CC(O)C1O` (stereo not given) [chlorogenic acid], the LC retention time was 9.09 min.

On to `CC(C=CC1(O)C(C)=CC(=O)CC1(C)C)=CC(=O)O` (single isomer, unassigned; (+)) [(+)-abscisic acid], for which the LC retention time is 10.1 min. As to `Nc1ncnc2c1ncn2[C@@H]1O[C@H](CSCC[C@H]([NH3+])C(=O)[O-])[C@@H](O)[C@H]1O` [S-adenosyl-L-homocysteine], the LC retention time is 1.92 min. In the case of `CC(=O)OC(C)(C)C1CCC2(C)COC3(C)C=COC23C1` (stereo not given) [AC1L9CQ2], the LC retention time was 11.6 min.

The record behind these values is the RepoRT retention time repository (doi:10.1038/sdata.2014.29).
